Laboratory results as given in patent publication US12109303B2, “Orally dissolving antimicrobial film compositions and methods of their use” (ISHA Therapeutics LLC, priority 2022, dated 2024).
≈ marks a conversion by molar mass, not a printed value. Like-named read-outs stand apart in the source and are kept apart here.

Assays:
[1] = Solubility in MiliQ water, quantified by HPLC; assay type: physicochemical; conditions: thermodynamic from solid, 0.5 mL MiliQ water, room temperature, 6 hours shaking, read-out: Solubility: average concentration of amphotericin B
Candida albicans [2] = assay: Growth inhibition assay with resazurin colorimetric readout (MIC48h); assay type: cell-based; conditions: RPMI 1640, 30° C., 48±2 hours, unmodified drug in DMSO, film in aqueous media
Text: (§1) Tis Example provides a description of antifungal efficacy testing wherein minimum inhibitor concentration (MIC) of the active pharmaceutical ingredient amphotericin B in the orally dissolvable films disclosed herein compared to that of unmodified amphotericin B. The test organism utilized in this experiment was Candida albicans.
Three to five colonies of a single Candida albicans strain were selected from stock YPD agar (agar comprising yeast extract, peptone, and dextrose; also referred to as YEPD agar) plates and suspended in Roswell Park Memorial Institute (RPMI) 1640 medium. The process was repeated to form a number of suspensions of Candida albicans. The Candida albicans suspensions were then each diluted to achieve an initial inoculum with an Abs600 of 0.010.
Test compositions of unmodified amphotericin B in DMSO and orally dissolvable films of amphotericin B in aqueous media were added, followed by serial dilution of the RPMI media.
A growth inhibition assay was performed in triplicate and results determined using a resazurin colorimetric assay. All plated compositions were incubated at 30° C. for 48±2 hours. […] After incubation, 20 μL of resazurin dye (0.02% w/v) was added to each well and observed for a change in dye color to determine cell viability.

Candida albicans [3] = assay: Resazurin microtiter assay (REMA) MIC; assay type: cell-based
Procedure: as §1, with “This” for “Tis”, “organisms” for “organism”, “were Candida tropicalis and” for “was”
(§2) A resazurin microtiter assay (REMA) assay was performed using orally dissolvable films prepared according to the process described in Example 3 and unmodified amphotericin B. Samples were run in triplicate as Sets 1-3 for each test material against each pathogen.
(§3) Images of the microtiter plates used to conduct this experiment are shown in FIG. 5, illustrating the results of MIC assay. […] Results of the orally dissolvable film (“ODF (A)”) and unmodified amphotericin B (“AmpB (B)”) against Candida tropicalis and Candida albicans are shown in the microtiter plates on the left and right, respectively. The first row of each microtiter plate (top) contains a positive control (“P.C.”). The second row of each microtiter plate contains a negative control (“N.C.”).

Candida tropicalis = assay: Resazurin microtiter assay (REMA) MIC; assay type: cell-based
Procedure: as §1, with “This” for “Tis”, “organisms” for “organism”, “were Candida tropicalis and” for “was”
as §2, §3

[4] = limited solubility and permeability; cited from earlier work
[5] = read-out: Minimum Inhibitory Concentration, Avg.
[6] = read-out: Minimum Inhibitory Concentration, Set 1
[7] = read-out: Minimum Inhibitory Concentration, Set 2
[8] = read-out: Minimum Inhibitory Concentration, Set 3

- solubility at 6 h [1]: 0.63 mg/mL (≈ 682 µM)
- MIC (Candida albicans [2]): 1.25 µM (≈ 1.16 µg/mL)
- MIC (Candida albicans [3]; read-out: Average MIC): 1.1 mg/L (≈ 1.19 µM)
- MIC (Candida albicans [3]; [5]): 1.1 mg/L (≈ 1.19 µM)
- MIC (Candida albicans [3]; [6]): 1.1 mg/L (≈ 1.19 µM)
- MIC (Candida albicans [3]; [7]): 1.1 mg/L (≈ 1.19 µM)
- MIC (Candida albicans [3]; [8]): 1.1 mg/L (≈ 1.19 µM)
- MIC (Candida tropicalis; read-out: Average MIC): 1.1 mg/L (≈ 1.19 µM)
- MIC (Candida tropicalis; [5]): 1.1 mg/L (≈ 1.19 µM)
- MIC (Candida tropicalis; [6]): 1.1 mg/L (≈ 1.19 µM)
- MIC (Candida tropicalis; [7]): 1.1 mg/L (≈ 1.19 µM)
- MIC (Candida tropicalis; [8]): 1.1 mg/L (≈ 1.19 µM)
Structure (SMILES): C[C@@H]1[C@H](O)[C@@H](C)/C=C/C=C/C=C/C=C/C=C/C=C/C=C/[C@H](O[C@@H]2O[C@H](C)[C@@H](O)[C@H](N)[C@@H]2O)C[C@@H]2O[C@](O)(C[C@@H](O)C[C@@H](O)[C@H](O)CC[C@@H](O)C[C@@H](O)CC(=O)O[C@H]1C)C[C@H](O)[C@H]2C(=O)O [AmpB, (1R,3S,5R,6R,9R,11R,15S,16R,17R,18S,19E,21E, 23E, 25E, 27E,29E,31E,33R,35S,36R,37S)-33-[(2R,3S,4S,5S,6R)-4-amino-3,5-di hydroxy-6-methyloxan-2-yl] oxy-1,3,5,6,9,11,17,37-octahydroxy-15,16,18-trimethyl-13-oxo-14,39-dioxabicyclo[33.3.1]nonatriaconta-19,21,23, 25, 27,29,31-heptaene-36-carboxylic acid]
- Biopharmaceutics Classification System (BCS) class [4]: class IV
